The numbers were not newly measured in US6124256A, “Method for the prevention of a patient's fibroproliferative vasculopathy” (priority 1998, dated 2000), which cites them from elsewhere.

The target of series [1] is T1, SSTR2 (Homo sapiens, UniProt P30874).
Target sequence in this assay (P30874 whole entry, species assumed): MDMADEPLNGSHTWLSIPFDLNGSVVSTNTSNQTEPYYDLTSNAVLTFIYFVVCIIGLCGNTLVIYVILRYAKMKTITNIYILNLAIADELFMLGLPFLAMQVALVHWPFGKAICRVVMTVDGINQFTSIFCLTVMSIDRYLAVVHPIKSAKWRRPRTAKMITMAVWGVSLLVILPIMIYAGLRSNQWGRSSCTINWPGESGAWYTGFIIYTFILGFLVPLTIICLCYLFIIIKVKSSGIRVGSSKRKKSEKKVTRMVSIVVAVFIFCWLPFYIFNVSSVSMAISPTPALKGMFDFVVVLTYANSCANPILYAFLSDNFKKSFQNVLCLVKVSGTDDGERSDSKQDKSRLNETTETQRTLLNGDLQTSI
A further series relates to restenosis. Conditions: randomized placebo controlled clinical trials; quantitated by angiography or as clinical events.
A further series deals with dysplastic lesions. The settings on record: arterial, venous and vascular transplant models, various animal species; results inconsistent between models.
In another series the target is T2, hSSTR1 (Homo sapiens, UniProt P30872).
T2 construct: expressed in transfected cells; host or cells: CHO
T2 sequence (P30872 whole entry): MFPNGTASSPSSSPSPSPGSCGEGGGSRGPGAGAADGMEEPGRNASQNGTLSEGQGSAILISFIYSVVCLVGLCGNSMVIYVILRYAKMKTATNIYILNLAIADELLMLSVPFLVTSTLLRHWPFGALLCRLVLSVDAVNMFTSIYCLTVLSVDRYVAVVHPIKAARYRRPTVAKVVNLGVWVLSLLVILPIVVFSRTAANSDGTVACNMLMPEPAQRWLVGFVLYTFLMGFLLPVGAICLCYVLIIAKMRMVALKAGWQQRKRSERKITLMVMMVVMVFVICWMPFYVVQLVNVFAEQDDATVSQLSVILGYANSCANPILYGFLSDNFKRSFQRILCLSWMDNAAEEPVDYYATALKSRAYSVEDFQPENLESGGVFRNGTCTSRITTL
The settings on record: human receptor in transfected CHO cell lines; read-out: binding affinities Ki hSSTR1.

Series [2] concerns the target T3, hSSTR3 (Homo sapiens, UniProt P32745). Details: expressed in transfected cells; host or cells: CHO. Conditions: human receptor in transfected CHO cell lines; read-out: binding affinities Ki hSSTR3.
The target of the next series is T4, hSSTR4 (Homo sapiens, UniProt P31391).
T4 construct: expressed in transfected cells; host or cells: CHO
T4 sequence (P31391 whole entry): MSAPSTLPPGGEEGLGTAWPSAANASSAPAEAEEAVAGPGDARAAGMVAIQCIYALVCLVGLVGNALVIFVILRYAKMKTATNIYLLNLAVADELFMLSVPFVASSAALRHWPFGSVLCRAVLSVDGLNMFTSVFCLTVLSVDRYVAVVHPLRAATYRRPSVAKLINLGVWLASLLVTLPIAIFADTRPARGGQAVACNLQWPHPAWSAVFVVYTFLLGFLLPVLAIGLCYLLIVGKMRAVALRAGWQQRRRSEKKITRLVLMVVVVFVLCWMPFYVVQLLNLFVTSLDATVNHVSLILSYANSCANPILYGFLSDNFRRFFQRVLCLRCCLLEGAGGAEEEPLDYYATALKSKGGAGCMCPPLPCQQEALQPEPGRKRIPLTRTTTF
The settings on record: human receptor in transfected CHO cell lines; read-out: binding affinities Ki hSSTR4.

The next series deals with T5, hSTR5 (Homo sapiens, UniProt P35346).
T5 construct: expressed in transfected cells; host or cells: CHO
T5 sequence (P35346 whole entry): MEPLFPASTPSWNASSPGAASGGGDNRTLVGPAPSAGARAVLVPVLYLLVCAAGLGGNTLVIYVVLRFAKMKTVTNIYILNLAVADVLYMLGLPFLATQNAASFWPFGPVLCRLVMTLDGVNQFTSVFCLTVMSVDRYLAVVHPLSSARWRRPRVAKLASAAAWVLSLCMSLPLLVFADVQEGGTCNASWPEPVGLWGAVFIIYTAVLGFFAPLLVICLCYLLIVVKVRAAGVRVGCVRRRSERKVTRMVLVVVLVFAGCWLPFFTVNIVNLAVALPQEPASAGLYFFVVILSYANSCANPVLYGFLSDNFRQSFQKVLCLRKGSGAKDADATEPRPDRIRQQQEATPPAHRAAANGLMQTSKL
Conditions: human receptor in transfected CHO cell lines; read-out: binding affinities Ki hSTR5.

The target in series [3] is T1, SSTR2. On the set-up: expressed in transfected cells; host or cells: CHO. The settings on record: human receptor in transfected CHO cell lines; read-out: binding affinities Ki hSSTR2.
Target sequence in this assay (P30874 whole entry): as the sequence (P30874 whole entry, species assumed) above
The target of series [4] is T3, hSSTR3.
Series [5] relates to SSTR3, the rodent receptor.

T3 sequence (P32745 whole entry): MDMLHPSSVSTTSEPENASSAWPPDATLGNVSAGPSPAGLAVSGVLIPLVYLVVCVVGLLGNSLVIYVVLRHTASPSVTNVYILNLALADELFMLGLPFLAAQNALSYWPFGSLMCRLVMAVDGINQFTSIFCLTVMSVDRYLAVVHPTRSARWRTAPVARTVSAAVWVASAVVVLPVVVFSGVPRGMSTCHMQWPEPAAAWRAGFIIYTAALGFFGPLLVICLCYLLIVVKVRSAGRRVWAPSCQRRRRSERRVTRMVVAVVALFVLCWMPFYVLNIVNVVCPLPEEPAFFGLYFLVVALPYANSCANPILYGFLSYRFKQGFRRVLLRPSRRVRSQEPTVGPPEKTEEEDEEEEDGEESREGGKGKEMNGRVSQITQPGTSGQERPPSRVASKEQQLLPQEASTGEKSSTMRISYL

In the case of `CC(C)[C@@H]1NC(=O)[C@H](CCCCN)NC(=O)[C@@H](Cc2c[nH]c3ccccc23)NC(=O)[C@H](Cc2ccc(O)cc2)NC(=O)[C@@H](NC(=O)[C@H](N)Cc2ccc3ccccc3c2)CSSC[C@@H](C(=O)N[C@H](C(N)=O)[C@@H](C)O)NC1=O` [Lanreotide, lanreotide], at SSTR2 [1], the “affinity to SSTR2 (in words)” value is given as “high affinity”. Also, in the series with restenosis, the “prevention of restenosis after percutaneous transluminal angioplasty” value is on record as “in some studies has been shown to prevent restenosis”. The “formation of dysplastic lesions” value in the series on dysplastic lesions is “prevents the formation of dysplastic lesions”. For the same molecule, the inhibition constant Ki on hSSTR1 was greater than 1000 nM.
As for “desAA^1.2.5 [D-Trp^6 -N-p-isopropyl-4-aminomethyl-L-phenylalanine]-SST14 [DADI-SST14]”, the Ki is greater than 1000 nM on hSSTR3 [2]; 4.3 nM on hSSTR4; greater than 1000 nM on hSTR5; 3.2 nM at hSSTR1; greater than 1000 nM on SSTR2 [3].
Turning to `C[C@@H](O)[C@@H]1NC(=O)[C@H](CCCCN)NC(=O)[C@@H](Cc2c[nH]c3ccccc23)NC(=O)[C@H](Cc2ccccc2)NC(=O)[C@@H](NC(=O)[C@H](N)Cc2ccccc2)CSSC[C@@H](C(=O)N[C@H](CO)[C@@H](C)O)NC1=O` [Octeoride, octreotide], on hSSTR3 [4], the “binding to human SSTR3 (in words)” value is “binds well”. Also, the “affinity to SSTR2 (in words)” value on SSTR2 [1] is “high affinity”. Further, in the series with restenosis, the “prevention of restenosis after percutaneous transluminal angioplasty” value is “the same therapeutic response has not been achieved”. Besides, the “formation of dysplastic lesions” value in the series with dysplastic lesions is listed as “prevents the formation of dysplastic lesions”. In series [5], the “affinity for the rodent SSTR3 receptor (in words)” value is “only moderate affinity”.

Broadly, the Ki is a dissociation constant, usually derived from enzyme kinetics or from competition with a known ligand.
